According to patent US6419941B1, “Polyol ester insecticides and method of synthesis” (AVA Chemical Ventures L.L.C., priority 2000, dated 2002):
Entries after “also recorded” stand apart in the source; their conditions may differ.

Columns and labels:
Format in all cases: in vivo
[1] = insecticidal activity, insect not specified; settings: general statement, insect not named
[2] = test system: pear psylla; test: kill of pear psylla by polyol esters; settings: comparison in words, FIG. 1, 6, 7
Procedure: (§1) The chain lengths were systematically varied to determine if the chain length was critical as to the effectiveness as insecticides. The compounds were tested against pear psylla, tobacco hornworms, tobacco aphids and two-spotted spider mites.

[3] = test system: tobacco aphid; test: effectiveness against tobacco aphid; settings: comparison in words, FIG. 9-11
Procedure: as §1

[4] = test system: two-spotted spider mite; test: effectiveness against two-spotted spider mite; settings: comparison in words, FIG. 12
Procedure: as §1

| Substance | effectiveness as insecticide / insecticidal activity [1] | effectiveness (kill data) on pear psylla [2] | effectiveness (kill data) on pear psylla ([2]; listed as C10 acid ester) | effectiveness against tobacco aphid [3] | effectiveness against two-spotted spider mite [4] |
| --- | --- | --- | --- | --- | --- |
| Xylitol decanoate | the most effective for xylitol | most effective | the most effective |  |  |
| sucrose stearate [commercial sucrose stearate product] | does not have insecticidal activity |  |  |  |  |
| Xylitol dodecanoate [xylitol laurate] |  |  |  | more effective than xylitol decanoate; also recorded: better than a commercially available insecticidal soap product |  |
| D-Glucitol, decanoate [sorbitol decanoate] |  |  |  | more effective than xylitol laurate; also recorded: better than a commercially available insecticidal soap product | marginally more effective than the others |
| D-Glucitol, octanoate [sorbitol octanoate] | more effective as insecticides | the most effective |  | more effective than sorbitol decanoate |  |
| sucrose octanoate | the monoesters were more effective as insecticides than the diesters and triesters | monoesters that are more effective as insecticides than the diesters and triesters |  |  |  |
